According to patent US9302998B2, “Aryl triazole compounds with antitumoural activity” (SIGMA-TAU RESEARCH SWITZERLAND S.A., priority 2010, dated 2016):

Tests used:
[1] = tested on: NCI-H460 non-small cell lung carcinoma; test: Cytotoxicity assay, sulphorodamine B test, NCI-H460; assay type: cell-based; conditions: Homo sapiens, NCI-H460; 72 h, sulphorodamine B
Experimental: (§1) The antiproliferative activity of novel Hsp90 inhibitors was also evaluated on various cancerous cell lines by means of the sulphorodamine B test (i.e., NCI-H460 non-small cell lung carcinoma, A431 epidermoid, A2780 ovarian, MDA-MB436 triple-negative breast, U87MG glioblastoma, A498 renal, HCT116 colon, MeWo melanoma, MiaPaCa2 pancreas, HeLa cervix uteri, NB4 promyelocytic leukemia). NCI-H460, A431, MDA-MB436, A2780, A498, HeLa, NB4 tumour cells were grown in RPMI 1640 containing 10% fetal bovine serum (i.e., FBS from GIBCO), L-glutamine, and 50 μg/ml gentamycin sulfate.
(§2) All cell lines were maintained in a 37° C. incubator with saturated humidity and an atmosphere containing 95% air and 5% CO2, and were sub-cultured every 2-3 days. Tumour cells were seeded in 96-well tissue culture plates at approximately 10% confluence and were allowed to attach and recover for 24 h.
(§3) Varying concentrations of the drugs were then added to each well to calculate their IC50 value (the concentration which inhibits the 50% of cell survival). The plates were incubated at 37° C. for 72 h. At the end of the treatment, the plates were washed by remotion of the supernatant and addition of PBS 3 times. 200 μl PBS and 50 μl of cold 80% trichloroacetic acid (TCA) were added. The plates were incubated on ice for at least 1 h. TCA was removed, the plates were washed 3 times by immersion in distilled-water and dried on paper and at 40° C. for […]. Then 200 μl of 0.4% sulphorodamine B in 1% acetic acid were added. The plates were incubated at room temperature for 30 min. Sulphorodamine B was removed, the plates were washed by immersion in 1% acetic acid for 3 times, then they were dried on paper and at 40° C. for 5 min. Then, 200 μl Tris 10 mM were added, the plates were kept under stirring for 20 min. The cell survival was determined as optical density by a Multiskan […] at 540 nm. The amount of cells killed was calculated as the percentage decrease in sulphorodamine B binding compared with control cultures.

[2] = tested on: MiaPaCa2 pancreas; test: Sulphorodamine B test at single concentration, MiaPaCa2; assay type: cell-based; conditions: Homo sapiens, MIA PaCa-2; 500 nM, 72 h
Experimental: as §1
MiaPaCa2 cells were cultured in DMEM medium containing 10% FBS, L-glutamine, and 50 μg/ml gentamycin sulfate.
as §2, §3
(§4) The other cell lines were screened against one single concentration of the various inhibitors (i.e., 500 nM), all experiments being made in octuplicate, following the protocol described at example 35. Since NB4 cell line was grown in suspension, a further step of centrifugation (i.e., 1600 g for 10 min) was added after the 72 hour incubation period.

[3] = tested on: MDA-MB436 triple-negative breast; test: Sulphorodamine B test at single concentration, MDA-MB436; assay type: cell-based; conditions: Homo sapiens, MDA-MB-436; 500 nM, 72 h
Experimental: as §1, §2, §3, §4

[4] = tested on: HCT116 colon; test: Sulphorodamine B test at single concentration, HCT116; assay type: cell-based; conditions: Homo sapiens, HCT-116; 500 nM, 72 h
Experimental: as §1
HCT116 cells were cultured in McCoy's medium containing 10% FBS, L-glutamine, and 50 μg/ml gentamycin sulfate.
as §2, §3, §4

[5] = tested on: A498 renal; test: Sulphorodamine B test at single concentration, A498; assay type: cell-based; conditions: Homo sapiens, 500 nM, 72 h
Experimental: as §1, §2, §3, §4

[6] = tested on: MeWo melanoma; test: Sulphorodamine B test at single concentration, MeWo; assay type: cell-based; conditions: Homo sapiens, 500 nM, 72 h
Experimental: as §1
(§5) MeWo and U87-MG cells were cultured in Eagle's Minimum Essential Medium (i.e., EMEM) containing 10% FBS, L-glutamine, 1 mM sodium pyruvate, 0.1 mM non-essential amino acids, 1.5 g/l sodium bicarbonate, and 50 μg/ml gentamycin sulphate.
as §2, §3, §4

[7] = tested on: HeLa cervix uteri; test: Sulphorodamine B test at single concentration, HeLa; assay type: cell-based; conditions: Homo sapiens, 500 nM, 72 h
Experimental: as §1, §2, §3, §4

[8] = tested on: A2780 ovarian; test: Sulphorodamine B test at single concentration, A2780; assay type: cell-based; conditions: Homo sapiens, 500 nM, 72 h
Experimental: as §1, §2, §3, §4

[9] = tested on: U87MG glioblastoma; test: Sulphorodamine B test at single concentration, U87MG; assay type: cell-based; conditions: Homo sapiens, U-87 MG; 500 nM, 72 h
Experimental: as §1, §5, §2, §3, §4

[10] = biological target: T1, Hsp90 (Homo sapiens, UniProt P07900); test: Fluorescence Polarization (FP) binding, GM-BODIPY displacement from Hsp90; conditions: GM-BODIPY tracer, 4° C. for 4 hours
T1 construct: purchased Stressgen SPP-776
Experimental: GM-BODIPY (PerkinElmer, CUSN60342000MG) was previously dissolved in DMSO to obtain 10 mM stock solutions and kept at −20° C. until use.
Hsp90 (Stressgen, SPP-776), was previously dissolved in assay buffer (HFB) to form 2.2 μM stock solutions and kept at −80° C. until use.
The compounds were previously dissolved in DMSO to obtain stock solutions and kept at −20° C. The day of experiment, the compounds were prepared by serial dilutions in assay buffer (HFB) containing 20 mM HEPES (K) pH 7.3, 50 mM KCl, 5 mM MgCl2, 20 mM Na2MoO4 and 0.01% NP40. Before each use, 0.1 mg/ml Bovine Gamma globulin and 2 mM DTT were freshly added.
Fluorescence Polarization (FP) was performed in Opti-Plate™-96F well plates (Perkin Elmer, Zaventem, Belgium) using a plate reader (Wallac Envision 2101 multilabel reader, Perkin Elmer, Zaventem, Belgium). To evaluate the binding affinity of the molecules, 50 μl of the GM-BODIPY solution (100 nM) were added to 125 nM of Hsp90 in the presence of 5 μl of the test compounds at increasing concentrations. The plate was mixed on a shaker at 4° C. for 4 hours, and the FP values in mP (millipolarization units) were recorded. The IC50 values were calculated as the inhibitor concentration where 50% of the tracer is displaced; each data point is the result of the average of triplicate wells, and was determined from a plot using nonlinear least-squares analysis. Curve fitting was performed using
Prism GraphPad software program (GraphPad software, Inc., San Diego, Calif.).

[11] = tested on: NB4 promyelocytic leukemia; test: Sulphorodamine B test at single concentration, NB4; assay type: cell-based; conditions: 500 nM, 72 h, suspension cells
Experimental: as §1, §2, §3, §4

[12] = tested on: A431 epidermoid; test: Sulphorodamine B test at single concentration, A431; assay type: cell-based; conditions: Homo sapiens, A-431; 500 nM, 72 h
Experimental: as §1, §2, §3, §4

SMILES | IC50 [10] | IC50 [1] | inhibition at 0.5 µM [2] | inhibition at 0.5 µM [3] | inhibition at 0.5 µM [4] | inhibition at 0.5 µM [5] | inhibition at 0.5 µM [6] | inhibition at 0.5 µM [7] | inhibition at 0.5 µM [8] | inhibition at 0.5 µM [9] | inhibition at 0.5 µM [11] | inhibition at 0.5 µM [12]
CCNC(=O)c1nnn(-c2cc(C(C)C)c(O)cc2O)c1-c1ccc(CN2CCCCC2)cc1 [Example 9, 1-(2,4-dihydroxy-5-isopropyl-phenyl)-5-(4-piperidin-1-ylmethyl-phenyl)-1H-[1,2,3]triazole-4-carboxylic acid ethylamide] | < 50 nM | < 50 nM | ≥ 50% | ≥ 50% | ≥ 50% | ≥ 50% | ≥ 50% | ≥ 50% | ≥ 50% | ≥ 50% | ≥ 50% | ≥ 50%
CCNC(=O)c1nnn(-c2cc(C(C)C)c(O)cc2O)c1-c1ccc(CN2CCN(C)CC2)cc1 [Example 11, 1-(2,4-dihydroxy-5-isopropyl-phenyl)-5-[4-(4-methyl-piperazin-1-ylmethyl)-phenyl]-1H-[1,2,3]triazole-4-carboxylic acid ethylamide] | < 50 nM | < 50 nM | ≥ 50% | ≥ 50% | ≥ 50% | ≥ 50% | ≥ 50% | ≥ 50% | ≥ 50% | ≥ 50% | ≥ 50% | ≥ 50%
CCNC(=O)c1nnn(-c2cc(C(C)C)c(O)cc2O)c1-c1ccc(CNCC2CCCCC2)cc1 [Example 15, 5-{4-[(cyclohexylmethyl-amino)-methyl]-phenyl}-1-(2,4-dihydroxy-5-isopropyl-phenyl)-1H-[1,2,3]triazole-4-carboxylic acid ethylamide] | < 50 nM | < 50 nM | ≥ 50% | ≥ 50% | ≥ 50% | ≥ 50% | ≥ 50% | ≥ 50% | ≥ 50% | ≥ 50% | ≥ 50% | ≥ 50%
CCCCCCNC(=O)c1nnn(-c2cc(C(C)C)c(O)cc2O)c1-c1ccc(CN2CCOCC2)cc1 [Example 27, 1-(2,4-dihydroxy-5-isopropyl-phenyl)-5-(4-morpholin-4-ylmethyl-phenyl)-1H-[1,2,3]triazole-4-carboxylic acid hexylamide] | < 50 nM | < 50 nM | ≥ 50% | ≥ 50% | ≥ 50% | ≥ 50% | ≥ 50% | ≥ 50% | ≥ 50% | ≥ 50% | ≥ 50% | ≥ 50%

The next lines start with results.

IC50 [10] | SMILES | IC50 [1] | inhibition at 0.5 µM [2] | inhibition at 0.5 µM [3] | inhibition at 0.5 µM [4] | inhibition at 0.5 µM [5] | inhibition at 0.5 µM [6] | inhibition at 0.5 µM [7] | inhibition at 0.5 µM [8] | inhibition at 0.5 µM [9] | inhibition at 0.5 µM [11] | inhibition at 0.5 µM [12]
< 50 nM | CCNC(=O)c1nnn(-c2cc(C(C)C)c(O)cc2O)c1-c1ccc(CN(CC)CCO)cc1 [Example 7, 1-(2,4-dihydroxy-5-isopropyl-phenyl)-5-(4-{[ethyl-(2-hydroxy-ethyl)-amino]-methyl}-phenyl)-1H-[1,2,3]triazole-4-carboxylic acid ethylamide] | 50 to 100 nM | ≥ 50% | ≥ 50% | ≥ 50% | ≥ 50% | ≥ 50% | ≥ 50% | ≥ 50% | ≥ 50% | ≥ 50% | ≥ 50%
< 50 nM | CCNC(=O)c1nnn(-c2cc(C(C)C)c(O)cc2O)c1-c1ccc(CN2CCCCC2CCO)cc1 (stereo not drawn) [Example 8, 1-(2,4-dihydroxy-5-isopropyl-phenyl)-5-{4-[2-(2-hydroxy-ethyl)-piperidin-1-ylmethyl]-phenyl}-1H-[1,2,3]triazole-4-carboxylic acid ethylamide] | 100 to 500 nM | ≥ 50% | ≥ 50% | ≥ 50% | 30 to 50% | ≥ 50% | ≥ 50% | ≥ 50% | ≥ 50% | ≥ 50% | ≥ 50%
< 50 nM | CCNC(=O)c1nnn(-c2cc(C(C)C)c(O)cc2O)c1-c1ccc(CNCCN(CC)CC)cc1 [Example 17, 5-{4-[(2-diethylamino-ethylamino)-methyl]-phenyl}-1-(2,4-dihydroxy-5-isopropyl-phenyl)-1H-[1,2,3]triazole-4-carboxylic acid ethylamide] | 100 to 500 nM | ≥ 50% | ≥ 50% | 30 to 50% | 30 to 50% | ≥ 50% | 30 to 50% | ≥ 50% | ≥ 50% | ≥ 50% | ≥ 50%
< 50 nM | CCNC(=O)c1nnn(-c2cc(C(C)C)c(O)cc2O)c1-c1ccc(CN2CC[C@H](N(C)C)C2)cc1 [Example 20, 1-(2,4-dihydroxy-5-isopropyl-phenyl)-5-[4-((S)-3-dimethylamino-pyrrolidin-1-ylmethyl)-phenyl]-1H-[1,2,3]triazole-4-carboxylic acid ethylamide] | < 50 nM | ≥ 50% | ≥ 50% | ≥ 50% | 30 to 50% | ≥ 50% | ≥ 50% | ≥ 50% | ≥ 50% | ≥ 50% | ≥ 50%
< 50 nM | CC(C)c1cc(-n2nnc(C(=O)NC3CCCC3)c2-c2ccc(CN3CCOCC3)cc2)c(O)cc1O [Example 28, 1-(2,4-dihydroxy-5-isopropyl-phenyl)-5-(4-morpholin-4-ylmethyl-phenyl)-1H-[1,2,3]triazole-4-carboxylic acid cyclopentylamide] | < 50 nM | ≥ 50% | ≥ 50% | ≥ 50% | ≥ 50% | ≥ 50% | ≥ 50% | ≥ 50% | ≥ 50% | ≥ 50% | ≥ 50%
